Assays:
Conditions in all cases: 72 h
Calu-3 [1] = assay: cell viability relative to DMSO; higher = less toxic
HepG2 [2] = assay: as above
U2OS [3] = assay: as above
Vero E6 [4] = assay: as above
Caco-2 [5] = assay: as above
Calu-3 [6] = assay: relative viability EC50 (midpoint between 100% and the lowest measured viability); higher = less toxic
HepG2 [7] = assay: as above
U2OS [8] = assay: as above
Vero E6 [9] = assay: as above
Caco-2 [10] = assay: as above
Calu-3 [11] = assay: drug sensitivity score (DSS) for viability; higher = more toxic; extreme values may be limits of the assay
HepG2 [12] = assay: as above
U2OS [13] = assay: as above
Vero E6 [14] = assay: as above
Caco-2 [15] = assay: as above

Compound | cell viability (Calu-3 [1]; 1 nM) | cell viability (Calu-3 [1]; 10 nM) | cell viability (Calu-3 [1]; 100 nM) | cell viability (Calu-3 [1]; 1000 nM) | cell viability (Calu-3 [1]; 10000 nM) | cell viability (HepG2 [2]; 1 nM) | cell viability (HepG2 [2]; 10 nM) | cell viability (HepG2 [2]; 100 nM) | cell viability (HepG2 [2]; 1000 nM) | cell viability (HepG2 [2]; 10000 nM) | cell viability (U2OS [3]; 1 nM) | cell viability (U2OS [3]; 10 nM) | cell viability (U2OS [3]; 100 nM) | cell viability (U2OS [3]; 1000 nM) | cell viability (U2OS [3]; 10000 nM) | cell viability (Vero E6 [4]; 1 nM) | cell viability (Vero E6 [4]; 10 nM) | cell viability (Vero E6 [4]; 100 nM) | cell viability (Vero E6 [4]; 1000 nM) | cell viability (Vero E6 [4]; 10000 nM) | cell viability (Caco-2 [5]; 1 nM) | cell viability (Caco-2 [5]; 10 nM) | cell viability (Caco-2 [5]; 100 nM) | cell viability (Caco-2 [5]; 1000 nM) | cell viability (Caco-2 [5]; 10000 nM) | relative viability EC50 (Calu-3 [6]) | relative viability EC50 (HepG2 [7]) | relative viability EC50 (U2OS [8]) | relative viability EC50 (Vero E6 [9]) | relative viability EC50 (Caco-2 [10]) | drug sensitivity score (Calu-3 [11]) | drug sensitivity score (HepG2 [12]) | drug sensitivity score (U2OS [13]) | drug sensitivity score (Vero E6 [14]) | drug sensitivity score (Caco-2 [15])
CCCN1CCO[C@@H]2c3cc(O)ccc3OC[C@H]21 | 102% | 110% | 95% | 105% | 90.6% | 106% | 104% | 100% | 92% | 105% | 102% | 106% | 97.1% | 102% | 99.7% | 99.7% | 101% | 102% | 101% | 95.7% | 101% | 116% | 97.8% | 109% | 102% | > 10 µM | > 10 µM | > 10 µM | > 10 µM | > 10 µM | 0 | 0 | 0 | 0 | 0
CCNCc1cc(C(C)(C)C)c(O)c(C(C)(C)C)c1 |  |  |  |  |  | 99.1% | 99.7% | 99.6% | 98.4% | 105% | 102% | 103% | 98.5% | 101% | 96.5% | 101% | 104% | 96.7% | 97.2% | 105% | 103% | 97.8% | 96.1% | 98.2% | 99.8% |  | > 10 µM | > 10 µM | > 10 µM | > 10 µM |  | 0 | 0 | 0 | 0
CC[C@H](C)n1cc(C)c2c(C(=O)NCc3c(C)cc(C)[nH]c3=O)cc(-c3ccc(N4CCNCC4)nc3)cc21 | 96.3% | 102% | 107% | 102% | 90.9% | 98.7% | 97.7% | 99.1% | 99% | 87.9% | 97.4% | 98.2% | 98.8% | 101% | 91.7% | 92.3% | 99.2% | 91.6% | 88.2% | 98.7% | 93.9% | 101% | 102% | 102% | 95.1% | > 10 µM | > 10 µM | > 10 µM | > 10 µM | > 10 µM | 0 | 0.1 | 0 | 0 | 0
CN1C(=O)N(c2cc(Cl)cc(Cl)c2)C(=O)[C@]12CN(Cc1cc(C(=O)O)cs1)C[C@H]2c1ccc(C#N)cc1 |  |  |  |  |  | 101% | 112% | 109% | 98.1% | 104% | 104% | 97.8% | 101% | 103% | 100% | 98.3% | 101% | 95.5% | 96.6% | 105% | 109% | 94.8% | 100% | 103% | 93.7% |  | > 10 µM | > 10 µM | > 10 µM | > 10 µM |  | 0 | 0 | 0 | 0
Cc1sc(N)c(C(=O)c2cccc(C(F)(F)F)c2)c1C | 100% | 91.9% | 99.2% | 100% | 109% | 92.3% | 102% | 93.2% | 96.7% | 92.7% | 97.9% | 95.9% | 99.9% | 94.9% | 102% | 98.1% | 96.9% | 98% | 99.3% | 100% | 97.7% | 96.6% | 97% | 95.6% | 90.6% | > 10 µM | > 10 µM | > 10 µM | > 10 µM | > 10 µM | 0 | 0 | 0 | 0 | 0
Fc1ccc(CN2CCC(Nc3ccc(C(F)(F)F)nn3)CC2)cc1F | 112% | 97.6% | 86.9% | 91.7% | 107% | 90.1% | 108% | 91.2% | 88.1% | 93.4% | 101% | 95.5% | 95.6% | 102% | 101% | 90.3% | 101% | 97.4% | 98.5% | 104% | 100% | 95.8% | 101% | 94.7% | 94.1% | > 10 µM | > 10 µM | > 10 µM | > 10 µM | > 10 µM | 0 | 0.8 | 0 | 0 | 0
Nc1nc(=O)c2sc(=O)n([C@@H]3O[C@H](CO)[C@@H](O)[C@H]3O)c2[nH]1 | 94.2% | 110% | 97% | 95.3% | 97.5% | 91.6% | 99.5% | 107% | 107% | 97.2% | 97.2% | 93.6% | 95.4% | 102% | 102% | 94.9% | 98.7% | 97% | 95.8% | 102% | 95.1% | 90.6% | 92.7% | 99.6% | 103% | > 10 µM | > 10 µM | > 10 µM | > 10 µM | > 10 µM | 0 | 0 | 0 | 0 | 0
CC12CCC(C(Br)C1=O)C2(C)C (configuration not stated) [3-bromocamphor] |  |  |  |  |  | 94.1% | 87.3% | 94.3% | 101% | 104% | 99.6% | 95.1% | 100% | 97.1% | 101% | 91.8% | 102% | 92.2% | 103% | 104% | 88.5% | 94.3% | 96.6% | 95.2% | 94.8% |  | > 10 µM | > 10 µM | > 10 µM | > 10 µM |  | 0 | 0 | 0 | 0
O=c1[nH]cnc2ccccc12 [4-HQN] |  |  |  |  |  | 104% | 86.9% | 113% | 99.1% | 108% | 95.2% | 98.7% | 94.5% | 101% | 102% | 99.9% | 93.8% | 94.8% | 92.1% | 100% | 86.3% | 94.6% | 91% | 101% | 107% |  | > 10 µM | > 10 µM | > 10 µM | > 10 µM |  | 0 | 0 | 0 | 0
COc1ccn2ncc(-c3nc4[nH]nc(NC(=O)c5ccc(F)cc5)c4cc3F)c2c1 [CW-008] | 109% | 107% | 113% | 97.8% | 97.2% | 109% | 102% | 95.2% | 101% | 93.1% |  |  |  |  |  | 93.6% | 98.5% | 99.4% | 97% | 89.1% | 99.1% | 92.5% | 91.2% | 89.6% | 87.7% | > 10 µM | > 10 µM |  | > 10 µM | > 10 µM | 0 | 0 |  | 0.1 | 0.6
Cc1ccc2c(c1)=C(c1ccccc1)C(C1=NN(C(=O)CCC(=O)O)C(c3ccc(Br)cc3)C1)C(=O)N=2 (configuration not stated) [DQP-1105] |  |  |  |  |  | 106% | 105% | 97.9% | 95.2% | 105% | 102% | 110% | 97.4% | 100% | 94.9% | 95.9% | 100% | 100% | 97.7% | 96.9% | 94.1% | 97.7% | 97.2% | 90.2% | 96.1% |  | > 10 µM | > 10 µM | > 10 µM | > 10 µM |  | 0 | 0 | 0 | 0
CCc1c(O)cc(O)c(C(=O)c2ccc(OCCN3CCOCC3)c(OC)c2)c1CC(=O)N(CCOC)CCOC [KW-2478] | 104% | 110% | 100% | 76.9% | 53.4% | 108% | 103% | 109% | 69.1% | 5.8% | 98.8% | 95.3% | 100% | 98.3% | 47.5% | 98.6% | 103% | 96.1% | 99.1% | 100% | 110% | 96.3% | 101% | 77.6% | 46.5% |  | 1.33 µM | 2.93 µM | > 10 µM | 1.14 µM | 5.4 | 9.6 | 3 | 0 | 5.9

Source: the supplement of paper PMC13380429
